In article PMC10895652, “Preclinical Evaluation of Novel Positron Emission Tomography (PET) Probes for Imaging Leucine-Rich Repeat Kinase 2 (LRRK2)” (Journal of Medicinal Chemistry, 2024):

What was measured:
LRRK2 = target: T1, LRRK2 (Mus musculus, UniProt Q5S006); test: PET imaging in LPS-injected neuroinflammatory mouse model; assay type: in vivo; details: brain, LPS-injected mice versus sham group (PBS)
T1 construct: from tissue; host or cells: brain of living CD-1 mice, i.c.v; LPS or saline
Procedure: The CD-1 mice were anesthetized and secured in a stereotaxic frame. The skull was exposed and stereotaxic coordinates (−2.6 mm dorsal/ventral, −1.5 mm lateral, and −0.2 mm anterior/posterior from bregma) according to the procedure by Haley and McCormick.[43] The i.c.v. injections of 10 μg (in 2 μL of saline) of LPS and saline (control group) injections were administered using a microsyringe. The behavior of each mouse was characterized and recorded in the form of scores, including appearance, activity, level of consciousness, eyes, respiration rate, and respiration quality. Scores were determined by summing up the individual scores (Figure S10).
The general procedure for PET studies was described previously[35],[41] with minor modification in this work. Briefly, PET scans were carried out by a Genisys 4 PET scanner (Sofie Biosciences, Culver, CA). Mice were kept under anesthesia using 1–2% (v/v) isoflurane during the scan. The radiotracer (ca. 45 μCi/100 μL) was injected into the tail vein via a preinstalled catheter. A dynamic scan in 3D list mode was acquired for 60 min. The PET dynamic images were reconstructed using G4 software (Analysis Tools and System Setup/Diagnostics Tool, Sofie Biosciences). The radioactivity was decay-corrected and expressed as the standardized uptake value: SUV = (radioactivity per mL tissue/injected radioactivity) × body weight.

[1] = Radiometabolic analysis in mouse brain homogenate; assay type: in vivo; details: 30 min post tracer administration
Procedure: With the established good BBB penetration ability of [^18F]4, we then performed ex vivo biodistribution studies to obtain more in-depth information on the whole-body distribution and clearance of [^18F]4. Mice were sorted into four groups based on their survival intervals (5, 15, 30, and 60 min) after intravenous administration of [^18F]4. […] To investigate the in vivo stability of [^18F]4 in mouse brains, we conducted a radiometabolic analysis in mouse brain homogenate at 30 min post tracer administration.

T1 sequence (Q5S006 whole entry): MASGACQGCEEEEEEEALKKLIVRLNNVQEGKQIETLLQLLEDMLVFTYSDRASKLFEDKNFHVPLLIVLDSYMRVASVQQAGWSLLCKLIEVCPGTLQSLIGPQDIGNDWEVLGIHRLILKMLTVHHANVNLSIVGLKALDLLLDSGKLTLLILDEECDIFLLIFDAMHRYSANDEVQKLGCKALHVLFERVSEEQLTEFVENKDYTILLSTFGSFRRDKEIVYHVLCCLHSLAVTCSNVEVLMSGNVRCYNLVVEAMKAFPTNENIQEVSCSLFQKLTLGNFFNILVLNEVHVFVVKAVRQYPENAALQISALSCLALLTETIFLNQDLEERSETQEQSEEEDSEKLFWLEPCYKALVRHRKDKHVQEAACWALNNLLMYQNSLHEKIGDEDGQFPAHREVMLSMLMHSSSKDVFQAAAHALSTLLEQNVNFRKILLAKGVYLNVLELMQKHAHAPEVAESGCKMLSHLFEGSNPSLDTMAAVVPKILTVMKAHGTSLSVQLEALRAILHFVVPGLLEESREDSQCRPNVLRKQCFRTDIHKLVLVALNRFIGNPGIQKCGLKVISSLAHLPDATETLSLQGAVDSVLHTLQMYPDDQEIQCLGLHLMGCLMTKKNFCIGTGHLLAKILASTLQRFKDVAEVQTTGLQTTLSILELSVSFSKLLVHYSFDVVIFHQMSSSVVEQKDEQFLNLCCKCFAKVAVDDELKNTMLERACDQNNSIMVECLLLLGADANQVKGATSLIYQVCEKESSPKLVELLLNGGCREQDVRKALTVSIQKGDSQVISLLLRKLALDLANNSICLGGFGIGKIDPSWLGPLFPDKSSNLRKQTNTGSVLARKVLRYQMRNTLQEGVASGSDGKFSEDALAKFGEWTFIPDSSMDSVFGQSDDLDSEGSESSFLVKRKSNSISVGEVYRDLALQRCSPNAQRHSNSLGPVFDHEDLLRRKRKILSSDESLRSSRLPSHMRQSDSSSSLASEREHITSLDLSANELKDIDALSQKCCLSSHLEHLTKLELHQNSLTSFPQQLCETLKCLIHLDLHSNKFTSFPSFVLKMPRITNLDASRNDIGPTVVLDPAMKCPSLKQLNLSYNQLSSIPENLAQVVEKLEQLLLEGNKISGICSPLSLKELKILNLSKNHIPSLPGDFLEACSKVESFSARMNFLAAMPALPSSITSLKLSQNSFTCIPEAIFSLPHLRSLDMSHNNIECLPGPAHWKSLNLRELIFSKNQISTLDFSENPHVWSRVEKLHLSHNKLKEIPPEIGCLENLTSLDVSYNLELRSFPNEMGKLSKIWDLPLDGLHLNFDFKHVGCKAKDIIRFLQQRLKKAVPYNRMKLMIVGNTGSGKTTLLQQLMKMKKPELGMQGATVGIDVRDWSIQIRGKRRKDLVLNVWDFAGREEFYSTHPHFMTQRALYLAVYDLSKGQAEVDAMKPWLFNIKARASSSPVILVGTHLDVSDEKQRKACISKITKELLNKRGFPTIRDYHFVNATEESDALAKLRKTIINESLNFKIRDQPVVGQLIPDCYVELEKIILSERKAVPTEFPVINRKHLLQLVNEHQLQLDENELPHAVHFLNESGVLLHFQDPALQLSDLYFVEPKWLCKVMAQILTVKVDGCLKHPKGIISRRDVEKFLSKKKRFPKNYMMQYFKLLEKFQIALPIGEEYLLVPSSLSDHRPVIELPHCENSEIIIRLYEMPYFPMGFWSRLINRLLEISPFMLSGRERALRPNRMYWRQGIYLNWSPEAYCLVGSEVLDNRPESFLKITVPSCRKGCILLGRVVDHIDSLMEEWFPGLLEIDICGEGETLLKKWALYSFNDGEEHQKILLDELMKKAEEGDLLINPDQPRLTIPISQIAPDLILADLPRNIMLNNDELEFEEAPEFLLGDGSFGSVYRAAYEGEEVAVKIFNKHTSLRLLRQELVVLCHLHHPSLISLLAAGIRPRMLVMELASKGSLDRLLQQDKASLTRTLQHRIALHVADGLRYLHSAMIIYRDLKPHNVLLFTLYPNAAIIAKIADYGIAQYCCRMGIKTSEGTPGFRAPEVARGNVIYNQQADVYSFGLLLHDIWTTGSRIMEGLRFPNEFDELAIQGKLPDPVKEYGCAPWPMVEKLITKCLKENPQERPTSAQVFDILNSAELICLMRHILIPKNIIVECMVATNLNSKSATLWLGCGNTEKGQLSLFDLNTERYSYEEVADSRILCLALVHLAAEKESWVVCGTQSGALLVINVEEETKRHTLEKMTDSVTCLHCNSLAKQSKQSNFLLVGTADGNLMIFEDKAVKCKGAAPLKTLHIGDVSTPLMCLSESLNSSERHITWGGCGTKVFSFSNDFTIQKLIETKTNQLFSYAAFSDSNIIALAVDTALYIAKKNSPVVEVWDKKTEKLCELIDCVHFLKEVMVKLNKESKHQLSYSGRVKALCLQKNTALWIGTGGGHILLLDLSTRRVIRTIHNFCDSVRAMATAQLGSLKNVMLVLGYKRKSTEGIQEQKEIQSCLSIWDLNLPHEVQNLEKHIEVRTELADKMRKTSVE

In the case of `N#Cc1cccc(-c2c[nH]c3ncnc(N4CCOCC4)c23)c1[18F]` [[^18F]4], the “increase of radioactivity based on the AUCs” value (LRRK2) is reported as 28% and the “parent fraction in mouse brain homogenate” value [1] is reported as 69%.
